Test: xn = mol fraction of the nth substance listed
Settings: 101.3 kPa, Liquid; for excess molar heat capacity: Flow calorimetry

N#Cc1ccccc1 [benzonitrile] + Cc1ccc(C)cc1
Settings	excess molar heat capacity, 298.15 K [J/K/mol]	mass density, 298.15 K [kg/m3]	mass density, 308.15 K [kg/m3]
x1 = 0.0349	0.303	–	–
x1 = 0.0918	0.681	–	–
x1 = 0.1009	–	869.79	860.32
x1 = 0.2035	1.281	–	–
x1 = 0.2247	–	886.32	876.88
x1 = 0.2559	1.362	–	–
x1 = 0.2938	–	895.69	886.28
x1 = 0.3682	1.534	–	–
x1 = 0.4313	1.443	–	–
x1 = 0.4357	–	915.25	905.85
x1 = 0.5014	1.374	–	–
x1 = 0.5627	–	933.25	923.86
x1 = 0.5905	1.132	–	–
x1 = 0.6605	–	947.47	938.07
x1 = 0.6663	0.966	–	–
x1 = 0.7646	0.664	963.07	953.65
x1 = 0.8328	–	973.55	964.15
x1 = 0.8402	0.453	–	–
x1 = 0.9222	0.168	–	–
x1 = 0.9439	–	991.13	981.68
x1 = 0.9776	0.082	–	–
x1 = 1	–	1000.25	990.67

N#Cc1ccccc1 [benzonitrile] + Cc1cccc(C)c1
Settings	excess molar heat capacity [J/K/mol]	mass density [kg/m3]
298.15 K, x1 = 0.0568	0.522	–
298.15 K, x1 = 0.0741	–	869.26
298.15 K, x1 = 0.0772	0.686	–
298.15 K, x1 = 0.1671	1.299	–
298.15 K, x1 = 0.1804	–	883.15
298.15 K, x1 = 0.2404	1.53	–
298.15 K, x1 = 0.316	–	901.15
298.15 K, x1 = 0.3272	1.727	–
298.15 K, x1 = 0.4115	1.696	–
298.15 K, x1 = 0.4608	–	920.81
298.15 K, x1 = 0.4878	1.66	–
298.15 K, x1 = 0.5438	–	932.33
298.15 K, x1 = 0.5753	1.415	–
298.15 K, x1 = 0.6422	1.272	–
298.15 K, x1 = 0.6475	–	947.01
298.15 K, x1 = 0.7301	0.936	–
298.15 K, x1 = 0.74	–	960.47
298.15 K, x1 = 0.8157	0.683	–
298.15 K, x1 = 0.8816	–	981.74
298.15 K, x1 = 0.887	0.377	–
298.15 K, x1 = 0.899	–	984.42
298.15 K, x1 = 0.9334	0.254	–
298.15 K, x1 = 1	–	1000.25
308.15 K, x1 = 0.0741	–	859.61
308.15 K, x1 = 0.1804	–	873.5
308.15 K, x1 = 0.316	–	891.52
308.15 K, x1 = 0.4608	–	911.17
308.15 K, x1 = 0.5438	–	922.69
308.15 K, x1 = 0.6475	–	937.4
308.15 K, x1 = 0.74	–	950.87
308.15 K, x1 = 0.8816	–	972.18
308.15 K, x1 = 0.899	–	974.85
308.15 K, x1 = 1	–	990.67

— the NIST ThermoML archive (doi:10.1016/j.jct.2006.09.007)
